Experimental data published in US6355799B1, “Substituted benzene compounds, process for their preparation, and herbicidal and defoliant compositions containing them” (ISK Americas Incorporated, priority 1997, dated 2002).

Legend:
Assay type in all cases: in vivo
[1] = system: redroot pigweed (Amaranthus retroflexus, AMARE); test: Pre-emerge test, greenhouse herbicide activity screening; details: pre-emerge, rated 14 days after application, 0 = no damage, 100 = complete death
Procedure, shortened: (§1)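 Plants grown in 10 cm pots of sandy loam mix received acetone-dissolved compounds through a moving flat-fan nozzle. Doses ranged from 15 to 1000 g ai/ha. Pre-emerge pots were seeded one day earlier, post-emerge pots 8–21 days earlier. Fourteen days on, each pot was graded 0–100 for damage.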

[2] = system: barnyardgrass (Echinochloa crus-galli, ECHCG); test: as above; details: pre-emerge, rated 14 days after application, 0 = no damage, 100 = complete death
Procedure, shortened: (§2)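 Sandy loam pots; pre-emerge: sown 1 d pre-spray, surface-watered after, then bottom-watered. Post-emerge: sown 8–21 d before, 2–3 leaf stage, + 0.25% v/v NIS, bottom-watered. Acetone, 187 l/ha track spray, 15–1000 g ai/ha. 0–100 injury score, day 14.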

[3] = system: common ragweed (Ambrosia artemisizfolia L., AMBEL); test: as above; details: pre-emerge, rated 14 days after application, 0 = no damage, 100 = complete death
Procedure, shortened: as §2

[4] = system: green foxtail (Setaria viridis, SETVI); test: as above; details: pre-emerge, rated 14 days after application, 0 = no damage, 100 = complete death
Procedure, shortened: as §2

[5] = system: ivyleaf morningglory (Ipomoea hederacea, IPOHE); test: as above; details: pre-emerge, rated 14 days after application, 0 = no damage, 100 = complete death
Procedure, shortened: as §2

[6] = system: johnsongrass (Sorghum halepense, SORHA); test: as above; details: pre-emerge, rated 14 days after application, 0 = no damage, 100 = complete death
Procedure, shortened: as §2

[7] = system: lambsquarters (Chenopodium album, CHEAL); test: as above; details: pre-emerge, rated 14 days after application, 0 = no damage, 100 = complete death
Procedure, shortened: as §2

[8] = system: large crabgrass (Digitaria sanguinalis, DIGSA); test: as above; details: pre-emerge, rated 14 days after application, 0 = no damage, 100 = complete death
Procedure, shortened: as §2

[9] = system: sicklepod (Cassia obtusifolia, CASOB); test: as above; details: pre-emerge, rated 14 days after application, 0 = no damage, 100 = complete death
Procedure, shortened: as §2

[10] = system: velvetleaf (Abutilon theophrasti, ABUTH); test: as above; details: pre-emerge, rated 14 days after application, 0 = no damage, 100 = complete death
Procedure, shortened: as §2

[11] = system: field corn (Zea mays L., var. Dekalb 535, CORN); test: Pre-emerge test, crop safety; details: pre-emerge, rated 14 days after application, 0 = no damage, 100 = complete death
Procedure, shortened: (§3)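 Visual ratings on a 0-100 scale (0 no damage, 100 all plants dead) were taken at 14 days after treatment. Rates of 15-1000 g ai/ha in acetone, 187 l/ha, were sprayed onto soil one day after planting (pre-emerge) or onto 2-3 leaf plants with 0.25% v/v surfactant (post-emerge).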

[12] = system: upland rice (Oryza sp., var. Tebonnet, RICE); test: Pre-emerge test, crop safety; details: pre-emerge, rated 14 days after application, 0 = no damage, 100 = complete death
Procedure, shortened: as §3

[13] = system: barnyardgrass (Echinochloa crus-galli, ECHCG); test: Post-emerge test, greenhouse herbicide activity screening; details: phytotoxicity rating 0-100 (0 no damage, 100 complete death), 14 days after application
Procedure, shortened: as §1

[14] = system: common ragweed (Ambrosia artemisizfolia L., AMBEL); test: as above; details: phytotoxicity rating 0-100 (0 no damage, 100 complete death), 14 days after application
Procedure, shortened: as §1

[15] = system: green foxtail (Setaria viridis, SETVI); test: as above; details: phytotoxicity rating 0-100 (0 no damage, 100 complete death), 14 days after application
Procedure, shortened: as §1

[16] = system: ivyleaf morningglory (Ipomoea hederacea, IPOHE); test: as above; details: phytotoxicity rating 0-100 (0 no damage, 100 complete death), 14 days after application
Procedure, shortened: as §1

[17] = system: johnsongrass (Sorghum halepense, SORHA); test: as above; details: phytotoxicity rating 0-100 (0 no damage, 100 complete death), 14 days after application
Procedure, shortened: as §1

[18] = system: lambsquarters (Chenopodium album, CHEAL); test: as above; details: phytotoxicity rating 0-100 (0 no damage, 100 complete death), 14 days after application
Procedure, shortened: as §1

[19] = system: large crabgrass (Digitaria sanguinalis, DIGSA); test: as above; details: phytotoxicity rating 0-100 (0 no damage, 100 complete death), 14 days after application
Procedure, shortened: as §1

[20] = system: redroot pigweed (Amaranthus retroflexus, AMARE); test: as above; details: phytotoxicity rating 0-100 (0 no damage, 100 complete death), 14 days after application
Procedure, shortened: as §1

[21] = system: sicklepod (Cassia obtusifolia, CASOB); test: as above; details: phytotoxicity rating 0-100 (0 no damage, 100 complete death), 14 days after application
Procedure, shortened: as §1

[22] = system: velvetleaf (Abutilon theophrasti, ABUTH); test: as above; details: phytotoxicity rating 0-100 (0 no damage, 100 complete death), 14 days after application
Procedure, shortened: as §1

[23] = system: field corn (Zea mays L., var. Dekalb 535, CORN); test: Post-emerge test, crop safety; details: phytotoxicity rating 0-100 (0 no damage, 100 complete death), 14 days after application
Procedure, shortened: as §2

[24] = system: upland rice (Oryza sp., var. Tebonnet, RICE); test: Post-emerge test, crop safety; details: phytotoxicity rating 0-100 (0 no damage, 100 complete death), 14 days after application
Procedure, shortened: as §2

COc1c(Cl)cc(F)c(-n2c(=O)cc(C(F)(F)F)n(C)c2=O)c1NC(=O)c1ccc(C)cc1 [2-24]
70: Post-emerge Herbicidal Activity ECHCG ([13]; 63 g ai/ha) | Post-emerge Herbicidal Activity SETVI ([15]; 250 g ai/ha) | Post-emerge Herbicidal Activity CORN (crop damage) ([23]; 63 g ai/ha) | Post-emerge Herbicidal Activity RICE (crop damage) ([24]; 63 g ai/ha)
90: Pre-emerge Herbicidal Activity CASOB (phytotoxicity rating, scale 0-100) ([9]; 63 g ai/ha) | Pre-emerge crop damage RICE (phytotoxicity rating, scale 0-100) ([12]; 63 g ai/ha) | Post-emerge Herbicidal Activity SORHA ([17]; 250 g ai/ha) | Post-emerge Herbicidal Activity RICE (crop damage) ([24]; 250 g ai/ha)
98: Pre-emerge crop damage CORN (phytotoxicity rating, scale 0-100) ([11]; 250 g ai/ha)
50: Post-emerge Herbicidal Activity DIGSA ([19]; 250 g ai/ha)
95: Pre-emerge Herbicidal Activity ECHCG (phytotoxicity rating, scale 0-100) ([2]; 63 g ai/ha) | Pre-emerge Herbicidal Activity SORHA (phytotoxicity rating, scale 0-100) ([6]; 63 g ai/ha) | Pre-emerge crop damage CORN (phytotoxicity rating, scale 0-100) ([11]; 63 g ai/ha) | Post-emerge Herbicidal Activity ECHCG ([13]; 250 g ai/ha) | Post-emerge Herbicidal Activity CORN (crop damage) ([23]; 250 g ai/ha)
60: Post-emerge Herbicidal Activity SORHA ([17]; 63 g ai/ha)
99: Pre-emerge crop damage RICE (phytotoxicity rating, scale 0-100) ([12]; 250 g ai/ha) | Post-emerge Herbicidal Activity CHEAL ([18]; 63 g ai/ha)
20: Post-emerge Herbicidal Activity SETVI ([15]; 63 g ai/ha)
100: Pre-emerge Herbicidal Activity AMARE (phytotoxicity rating, scale 0-100) ([1]; 63 g ai/ha) | Pre-emerge Herbicidal Activity AMARE (phytotoxicity rating, scale 0-100) ([1]; 250 g ai/ha) | Pre-emerge Herbicidal Activity ECHCG (phytotoxicity rating, scale 0-100) ([2]; 250 g ai/ha) | Pre-emerge Herbicidal Activity AMBEL (phytotoxicity rating, scale 0-100) ([3]; 63 g ai/ha) | Pre-emerge Herbicidal Activity AMBEL (phytotoxicity rating, scale 0-100) ([3]; 250 g ai/ha) | Pre-emerge Herbicidal Activity SETVI (phytotoxicity rating, scale 0-100) ([4]; 63 g ai/ha) | Pre-emerge Herbicidal Activity SETVI (phytotoxicity rating, scale 0-100) ([4]; 250 g ai/ha) | Pre-emerge Herbicidal Activity IPOHE (phytotoxicity rating, scale 0-100) ([5]; 63 g ai/ha) | Pre-emerge Herbicidal Activity IPOHE (phytotoxicity rating, scale 0-100) ([5]; 250 g ai/ha) | Pre-emerge Herbicidal Activity SORHA (phytotoxicity rating, scale 0-100) ([6]; 250 g ai/ha) | Pre-emerge Herbicidal Activity CHEAL (phytotoxicity rating, scale 0-100) ([7]; 63 g ai/ha) | Pre-emerge Herbicidal Activity CHEAL (phytotoxicity rating, scale 0-100) ([7]; 250 g ai/ha) | Pre-emerge Herbicidal Activity DIGSA (phytotoxicity rating, scale 0-100) ([8]; 63 g ai/ha) | Pre-emerge Herbicidal Activity DIGSA (phytotoxicity rating, scale 0-100) ([8]; 250 g ai/ha) | Pre-emerge Herbicidal Activity CASOB (phytotoxicity rating, scale 0-100) ([9]; 250 g ai/ha) | Pre-emerge Herbicidal Activity ABUTH (phytotoxicity rating, scale 0-100) ([10]; 63 g ai/ha) | Pre-emerge Herbicidal Activity ABUTH (phytotoxicity rating, scale 0-100) ([10]; 250 g ai/ha) | Post-emerge Herbicidal Activity AMBEL ([14]; 63 g ai/ha) | Post-emerge Herbicidal Activity AMBEL ([14]; 250 g ai/ha) | Post-emerge Herbicidal Activity IPOHE ([16]; 63 g ai/ha) | Post-emerge Herbicidal Activity IPOHE ([16]; 250 g ai/ha) | Post-emerge Herbicidal Activity CHEAL ([18]; 250 g ai/ha) | Post-emerge Herbicidal Activity AMARE ([20]; 63 g ai/ha) | Post-emerge Herbicidal Activity AMARE ([20]; 250 g ai/ha) | Post-emerge Herbicidal Activity CASOB ([21]; 63 g ai/ha) | Post-emerge Herbicidal Activity CASOB ([21]; 250 g ai/ha) | Post-emerge Herbicidal Activity ABUTH ([22]; 63 g ai/ha) | Post-emerge Herbicidal Activity ABUTH ([22]; 250 g ai/ha)
10: Post-emerge Herbicidal Activity DIGSA ([19]; 63 g ai/ha)
